Data published in patent US20090055945A1, “Method for Producing Nuclear-Transplanted Egg” (priority 2005, published 2009).

What was measured:
[1] = test system: nuclear transfer embryos; assay: Birth rate of cloned mice after implantation of treated nuclear transfer embryos; type: in vivo, mouse
Description: Based on the results of Example 3, the effect of the TSA treatment on the fetus birth rate was examined. […] after the initiation of activation and transferred to KSOM medium without TSA, and the nuclear transfer embryos transferred to KSOM medium without TSA were cultured in this medium until implantation. For producing cloned mice, embryos at the 2-cell stage were implanted into oviducts of pseudopregnant mice (surrogate mothers, day 0.5) on the day after the nuclear transfer. The pseudopregnancy treatment was carried out by mating a ICR female mouse (in estrus) with an ICR vasectomized male mouse on a one-to-one basis. The successful mating was confirmed based on the presence of plug formation. Cloned mice were delivered by cesarean section 19 days after the embryo transfer into oviduct. The ratio of the number of born cloned mouse fetuses to the number of implanted embryos (birth rate) was determined. Cloned mouse fetuses and placentas immediately after birth (left), and cloned mice (black) and a surrogate mother (white) after three weeks (right) are shown in FIG. 6.

[2] = test system: oocytes into which nuclei from fibroblasts were transferred; assay: Expanded blastocyst formation, fibroblasts as donor cells; type: cell-based, mouse; conditions: fibroblast donor nuclei; 50 nM TSA for 20 hours; FIG. 8
Description: A procedure similar to that described in Example 1 was carried out using fibroblasts or embryonic stem cells (ES cells) as donor cells in place of cumulus cells. Fibroblasts were obtained by culturing a fragment of mouse tail (Non-patent Document 11). E14 cells were used as ES cells (Non-patent Document 12).
Oocytes into which nuclei from the donor cells were transferred were treated with TSA for 20 hours, and cultured in KSOM medium without TSA until 96 hours after the initiation of activation. Then, development into expanded blastocysts was observed and the blastocyst formation rate was determined. 30 or more embryos were examined in each of the experimental groups of the respective cells.

[3] = test system: oocytes injected with nuclear domains of round spermatids; assay: Birth rate after round spermatid injection (ROSI); type: in vivo, mouse
Description: The effect of the TSA treatment according to the present invention on round spermatid injection (ROSI) was examined. ROSI was carried out according to the method as described in Non-patent Document 13.
Briefly, human choriogonadotropin (hCG) was first administered to female B6D2F1 mice (Japan SLC). Oocytes were collected after 16 hours and placed in a CZB medium. The oocytes were then transferred to a KSOM medium and incubated at 37° C. under 5% CO2.
The oocytes were activated by incubation in Ca^2+-free CZB medium supplemented with 5 mM strontium chloride (SrCl2) for 20 minutes. After 40 to 80 minutes, the oocytes were injected with the nuclear domains of round spermatids (characterized by diameters of about 10 μm and centrally located distinct nucleoli; see Non-patent Document 14) collected from a male C57BL/6 mouse (Japan SLC).
The oocytes injected with nuclei were transferred to KSOM medium containing 5 nM TSA, and further transferred to KSOM medium without TSA 10 hours after the initiation of activation.
Embryos at the 2-cell stage were implanted into oviducts of pseudopregnant mice (surrogate mothers, day 0.5) on the day after the spermatid injection. Fetuses were obtained by cesarean section 19 days after the embryo implantation. The ratio of the number of born fetuses to the number of implanted embryos (birth rate) was determined.

[4] = test system: cloned embryos derived from cumulus cells; assay: Methylation of DNA and histone H3 Lys9 in cloned embryos; type: cell-based, mouse; conditions: 500 nM TSA for 15 hours; FIG. 9
Description: Cloned embryos derived from cumulus cells were produced using oocytes from B6D2F1 mice produced according to the method as described in Example 1, and cultured in the presence or absence of 500 nM TSA for 15 hours (including the activation period). Then, the nuclear transfer embryos were fixed, and methylation of DNA (DNA metC) and methylation of histone H3 Lys9 (H3K9 trimet) were examined using antibodies against the respective antigens. Furthermore, DNA was stained with DAPI. 15 cloned embryos were used for each group. The results are shown in FIG. 9 along with the merged images (Merge).

[5] = test system: fibroblasts as donor cells; conditions: donor fibroblasts cultured with agent prior to nuclear transfer; Non-patent Document 1; cited from earlier work
[6] = test system: oocytes after fertilization; conditions: treatment of oocytes after fertilization; Non-patent Document 3; cited from earlier work

CC(/C=C/C(=O)NO)=C\[C@@H](C)C(=O)c1ccc(N(C)C)cc1 [TSA, trichostatin A]
Birth rate (%) ([1]; TSA 5 nM, treatment time 10 h): 6.2% | Number of born fetuses ([1]; TSA 5 nM, treatment time 10 h, 289 implanted embryos): 18 | Birth rate (%) ([1]; TSA 5 nM, treatment time 20 h): 3.2% | Number of born fetuses ([1]; TSA 5 nM, treatment time 20 h, 274 implanted embryos): 9 | Birth rate (%) ([1]; TSA 50 nM, treatment time 10 h): 7.7% | Number of born fetuses ([1]; TSA 50 nM, treatment time 10 h, 91 implanted embryos): 7 | Birth rate (%) ([1]; TSA 50 nM, treatment time 20 h): 2.5% | Number of born fetuses ([1]; TSA 50 nM, treatment time 20 h, 81 implanted embryos): 2 | birth rate vs control ([1]; TSA treatment for 10 hours or 20 hours): increased | blastocyst development rate compared with the case without TSA [2]: higher | increase in birth rate vs control without TSA ([3]; TSA 5 nM): about 4 fold | Birth rate (%) ([3]; TSA 5 nM until 10 hours after initiation of activation): 26.3% | Birth number ([3]; TSA 5 nM until 10 hours after initiation of activation, 38 implanted embryos): 10 | methylation of DNA and histone H3 Lys9 in other chromosomal portions [4]: reduction in methylation of both was observed | methylation of DNA and histone H3 Lys9 in the pericentromeric region [4]: prominent reduction was not observed | blastocyst development rate [5]: increased | development rate [6]: reduced
